Assay results reported in patent US5183821A, “Method for treating leukemias using N-(2-dimethylaminoethyl)-3-amino-1,8-naphthalimide for treating leukemias and solid tumors” (priority 1991, dated 1993).

What was measured:
[1] = tested on: leukemia P388; experiment: NCI studies against leukemia P388 (Appendix 1, MDA and T/C); type: in vivo, murine
Source text: On the other hand, murine transplantable leukemias are a good predictor of anti-leukemia activity in human beings (Kenis "Dose schedules and mode of administration of chemotherapeutic agents in man". Recent Results Cancer Res. 21, 54-61 (1969). Only those tests which use the survival times as an activity parameter are valid as predictors of antileukemia activity in human beings (for instance, leukemia p388 y L-1210), whilst "in vitro" tests (HeLa cells and other) are inappropriate (Llombart-Rodriguez, 1983). NCI data generated in the last years confirm the value of above assertions to compounds of general formula [drawing 1] as described in U.S. Pat. No. 4,204,063.
Experimental results from NCI studies against leukemia P388 are shown in an appendix (Appendix 1). In order to simplify the presentation of results we have extracted from these the minor active dose (MDA) against leukemia P388--for each compound. MDA is defined as the minor dose of the drug that reaches the minimal activity criteria of the NCI. For leukemia P388 this criteria on the basis of survival time is a minimal increase in survival of treated animals over a control resulting in a T/C≥120. In the following table the MDA for 14 examples are presented. In cases where none of the tested doses reached the MDA, the MDA is indicated as "NONE". The column "cytotoxic activity" has been extracted from U.S. Pat. No. 4,204,063. Data are presented in order of the highest to lowest cytotoxic activity.

[2] = tested on: L-1210 Lymphoid Leukemia; experiment: NCI screen, L-1210 Lymphoid Leukemia, subcutaneous (summary); type: in vivo, Mouse
Source text: (§1) The activity of the compound has been evaluated by experiments carried out under the auspices of the Division of Cancer Treatment, National Cancer Institute, employing techniques considered to be reliable indicators of chemotherapeutic utility in the treatment of forms of cancer in human patients. The details of the methodology employed in the reported experiments may be determined with reference to established NCI screening methods. In the experiments conducted by the NCI, evaluation of activity is made on the basis of appropriate parameters, such as median survival time (MST) or change in average tumor diameter (CATD)in ocular micrometer units (OMU).

[3] = tested on: CD8F1 mammary tumor; experiment: NCI screen, CD8F1 mammary tumor, subcutaneous (summary); type: in vivo, Mouse; settings: for Antitumor activity in words: CD8F1 mammary
Source text: as §1

[4] = tested on: Lewis lung carcinoma; experiment: NCI screen, Lewis lung carcinoma, intravenous (summary); type: in vivo, Mouse; settings: for Antitumor activity in words: Lewis lung carcinoma
Source text: as §1

[5] = tested on: P 388 Lymphocytic leukemia; experiment: Experiment 10: P388 i.p., 10^6 cells, saline with Tween-80, male; type: in vivo, Mouse CD2F1 (CDF1)
Source text: Tumor: P 388 Lymphocytic leukemia
(§2) Inoculum Site: Intraperitoneal
(§3) Vehicle: Saline with Tween-80
(§4) Treatment schedule (relative to tumor inoculation day): daily on days 1-9
(§5) Day of evaluation (relative to tumor inoculation day): 30
(§6) Parameter: Median survival time (MST) in days
(§7) NCI minimal activity criteria: Percent T/C≥120
(§8) Percent T/C: Ratio of test (T) evaluation to control (C) evaluation expressed as a percentage

[6] = tested on: P388 Lymphocytic leukemia; experiment: Experiment 11: P388 i.p., 10^6 cells, saline with Tween-80, female; type: in vivo, Mouse CD2 F1 (CDF1)
Source text: Host: Mouse CD2 F1 (CDF1)
Tumor: P388 Lymphocytic leukemia
as §2, §3, §4, §5, §6, §7, §8

[7] = tested on: Colon 38; experiment: Experiment 15: Colon 38 s.c., saline with Tween-80, female; type: in vivo, Mouse B6 D2 F1 (BDF1)
Source text: (§9) Host: Mouse B6 D2 F1 (BDF1)
(§10) Inoculum Site: Subcutaneous
as §3
Treatment schedule (relative to tumor inoculation day): Days 2 and 9
(§11) Day of evaluation (relative to tumor inoculation day): 20
(§12) Parameter: Median tumor weight (MTW) estimated from tumor diameter
(§13) NCI minimal activity criteria: Percent T/C≤42
as §8

[8] = tested on: B16 Melanocarcinoma; experiment: Experiment 16: B16 i.p., saline with Tween-80, male; type: in vivo, Mouse B6 C3 F1
Source text: Tumor: B16 Melanocarcinoma
as §2
Tissue: Homogenate (or brei), tumor
as §3, §4
Day of evaluation (relative to tumor inoculation day): 60
as §6
NCI minimal activity criteria: Percent T/C≥125
as §8

[9] = tested on: Colon 38; experiment: Experiment 12 (second): Colon 38 s.c., saline with Tween-80, female; type: in vivo, Mouse B6 D2 F1 (BDF1)
Source text: as §9, §10, §3
Treatment schedule (relative to tumor inoculation day): days 2 and 9
as §11, §12, §13, §8

[10] = 16.00 mg/kg i.p., control MTW outside normal limits
[11] = 32.00 mg/kg i.p., control MTW outside normal limits
[12] = 64.00 mg/kg i.p., control MTW outside normal limits

CN(C)CCN1C(=O)c2cccc3cc(N)cc(c23)C1=O [Example 9, 1H-Benz[de]isoquinoline-1,3(2H)-dione, 5-amino-2-[2-(dimethylamino)ethyl]]
response vs control in vivo at 2 mg/kg ([1]; Mus musculus, P388, read-out: T/C %, dose 2,00 mg/kg): 137% | response vs control in vivo at 4 mg/kg ([1]; Mus musculus, P388, read-out: T/C %, dose 4,00 mg/kg): 142% | response vs control in vivo at 32 mg/kg ([1]; Mus musculus, P388, read-out: T/C %, dose 32,00 mg/kg): < 100% | response vs control in vivo at 65 mg/kg ([1]; Mus musculus, P388, read-out: T/C %, dose 65,00 mg/kg): < 100% | minimal effective dose ([1]; Mus musculus, P388, minor active dose reaching T/C≥120): 2 mg/kg | STATUS (activity against leukemia P388) ([1]; at the dose of the same line of the appendix table): T/C > 120 active | Table II evaluation ([2]; median survival time, 16 tests, full wrapped cell: Activity substantially greater than the minimal): Activity | Antitumor activity in words ([2]; s.c. implanted L1210): active | Antitumor activity in words ([3]; listed as BIDA): not active | Antitumor activity in words ([3]; listed as the compound): not observed to be effective | Table II evaluation ([3]; change in median tumor weight, 15 tests, full wrapped cell: Activity not confirmed): Activity not | Antitumor activity in words ([4]; listed as BIDA): not active | Antitumor activity in words ([4]; listed as the compound): not observed to be effective | Table II evaluation ([4]; median survival time, 12 tests, full wrapped cell: Activity not confirmed): Activity not | Median survival time (MST) ([5]; 2.00 mg/kg i.p.): 13.3 days | Percent T/C ([5]; 2.00 mg/kg i.p.): 135% | Median survival time (MST) ([5]; 4.00 mg/kg i.p.): 14.0 days | Percent T/C ([5]; 4.00 mg/kg i.p.): 142% | Median survival time (MST) ([5]; 8.00 mg/kg i.p.): 17.3 days | Percent T/C ([5]; 8.00 mg/kg i.p.): 176% | Median survival time (MST) ([5]; 16.00 mg/kg i.p.): 13.0 days | Percent T/C ([5]; 16.00 mg/kg i.p.): 132% | Median survival time (MST) ([5]; 32.00 mg/kg i.p.): 6.1 days | Median survival time (MST) ([6]; 8.00 mg/kg i.p.): 17.0 days | Percent T/C ([6]; 8.00 mg/kg i.p.): 144% | Median survival time (MST) ([6]; 16.00 mg/kg i.p.): 21.0 days | Percent T/C ([6]; 16.00 mg/kg i.p.): 177% | Median survival time (MST) ([6]; 32.00 mg/kg i.p.): 7.3 days | Median survival time (MST) ([6]; 65.00 mg/kg i.p.): 6.4 days | Median tumor weight (MTW) [7, 10]: 2261 | Percent T/C [7, 10]: 108% | Median tumor weight (MTW) [7, 11]: 1440 | Percent T/C [7, 11]: 69% | Median tumor weight (MTW) [7, 12]: 368 | Percent T/C [7, 12]: 17% | Median tumor weight (MTW) ([7]; 128.00 mg/kg i.p.): Deaths before evaluation | Median survival time (MST) ([8]; 1.00 mg/kg i.p.): 17.6 days | Percent T/C ([8]; 1.00 mg/kg i.p.): 102% | Median survival time (MST) ([8]; 2.00 mg/kg i.p.): 17.3 days | Percent T/C ([8]; 2.00 mg/kg i.p.): 101% | Median survival time (MST) ([8]; 4.00 mg/kg i.p.): 19.3 days | Percent T/C ([8]; 4.00 mg/kg i.p.): 112% | Median survival time (MST) ([8]; 8.00 mg/kg i.p.): 20.3 days | Percent T/C ([8]; 8.00 mg/kg i.p.): 118% | Median survival time (MST) ([8]; 16.00 mg/kg i.p.): 35.0 days | Percent T/C ([8]; 16.00 mg/kg i.p.): 87% | Median survival time (MST) ([8]; 32.00 mg/kg i.p.): 8.3 days | Median tumor weight (MTW) ([9]; 8.00 mg/kg i.p.): 1100 | Percent T/C ([9]; 8.00 mg/kg i.p.): 88% | Median tumor weight (MTW) ([9]; 16.00 mg/kg i.p.): 1256 | Percent T/C ([9]; 16.00 mg/kg i.p.): 100% | Median tumor weight (MTW) ([9]; 32.00 mg/kg i.p.): 1005 | Percent T/C ([9]; 32.00 mg/kg i.p.): 80% | Median tumor weight (MTW) ([9]; 64.00 mg/kg i.p.): 699 | Percent T/C ([9]; 64.00 mg/kg i.p.): 55% | Median tumor weight (MTW) ([9]; 128.00 mg/kg i.p.): Deaths before evaluation
